This is an account of results in US10106539B2, “Spiro-indolines for the treatment and prophylaxis of respiratory syncytial virus infection (RSV)” (REVIRAL LIMITED, priority 2014, dated 2018).

For one data set, the system named is RSV A2 (PRNT1). As to the kind of experiment: RSV plaque reduction assay, A2 (PRNT1), Vero cells. Format: cell-based, respiratory syncytial virus. Conditions: human respiratory syncytial virus, Vero; n = 4. As to the method: Plaque Reduction Assay: […] After an overnight incubation at 37° C. in a humidified 5% CO2 atmosphere, the monolayer of cells should be approximately 90% confluent. Antiviral compounds were titrated in pre-warmed Serum Free (SF) Optimem in a U-bottom 96 well plate. […] Media was then removed from cells and replaced with PBS (100 μl/well). RSV stock was thawed and diluted in SF Optimem media to 4000 PFU/mLl. An equal volume of virus was added to compounds on the titration plate. PBS was removed from cells which were then inoculated with the virus/compound solution (50 μL/well). Cells were incubated for 2 h in a 37° C.+5% CO2 humidified incubator to allow infection. […] Immunostaining Procedure: Media was removed from cells and the monolayer washed with PBS. Cells were fixed with ice cold 80% Acetone in PBS (100 μl/well) for 20 mins at −20° C. […] Blocking solution was removed and plates washed once with PBS-T. Primary antibody in blocking solution was added to plates (50 μl/well) and incubated for 1 h at 37° C. Plates were then washed 3 times with PBS-T. Secondary antibody in blocking solution was added to plates (50 μL/well) and incubated for 1 h at 37° C. in the dark. […] Plates were scanned on the Odyssey Imager (Li-Cor Biosciences) at a resolution of […], medium quality and level 5 intensity in the […]. Data Analysis: Images obtained were saved and plaque numbers counted with the aid of computer imaging software. EC50 values for compounds were derived from dose response curves [three variable log (inhibitor) vs response] obtained using Graphpad Prism software.
A general note: In a plaque reduction assay, fewer plaques than in the control indicate reduced infectivity or spread.

The next data set concerns RSV-A5 (6440). Description: RSV plaque reduction assay, RSV-A5 (6440), Vero cells. The format is cell-based. To be noted: human respiratory syncytial virus, n = 1. The procedure:
(§1) Plaque Reduction Assay: […] After an overnight incubation at 37° C. in a humidified 5% CO2 atmosphere, the monolayer of cells should be approximately 90% confluent. Antiviral compounds were titrated in pre-warmed Serum Free (SF) Optimem in a U-bottom 96 well plate. […] Media was then removed from cells and replaced with PBS (100 μl/well). RSV stock was thawed and diluted in SF Optimem media to 4000 PFU/mLl. An equal volume of virus was added to compounds on the titration plate. PBS was removed from cells which were then inoculated with the virus/compound solution (50 μL/well). Cells were incubated for 2 h in a 37° C.+5% CO2 humidified incubator to allow infection. […] Immunostaining Procedure: Media was removed from cells and the monolayer washed with PBS. Cells were fixed with ice cold 80% Acetone in PBS (100 μl/well) for 20 mins at −20° C. […] Blocking solution was removed and plates washed once with PBS-T. Primary antibody in blocking solution was added to plates (50 μl/well) and incubated for 1 h at 37° C. Plates were then washed 3 times with PBS-T. Secondary antibody in blocking solution was added to plates (50 μL/well) and incubated for 1 h at 37° C. in the dark. […] Data Analysis: Images obtained were saved and plaque numbers counted with the aid of computer imaging software. […]

The test system of a further data set is RSV-A5 (6470). Description: RSV plaque reduction assay, RSV-A5 (6470), Vero cells. Format: cell-based. To be noted: human respiratory syncytial virus, n = 1. The procedure: as §1
In another data set the test system is RSV-BA (Brasil). Description: RSV plaque reduction assay, RSV-BA (Brasil), Vero cells. Format: cell-based. To be noted: human respiratory syncytial virus, n = 1. As to the method:
as §1

Data set [1] can be described thus: Plasma protein binding (equilibrium dialysis), human. The format is in vitro ADME. To be noted: plasma (100%), pH 7.4, read-out: PPB fraction unbound, human. As to the method: Protein Binding Determination: Experimental Procedure
Solutions of test compound (5 μM, 0.5% final DMSO concentration) are prepared in buffer (pH 7.4) and 100% species-specific plasma. The experiment is performed using equilibrium dialysis with the two compartments separated by a semi-permeable membrane. The buffer solution is added to one side of the membrane and the plasma solution to the other side. After equilibration, samples are taken from both sides of the membrane. Standards are prepared in plasma and buffer and are incubated at 37° C.
Test compound incubations are performed in duplicate. A control compound is included in each experiment.
The solutions for each batch of compounds are combined into two groups (protein-free and protein-containing), then cassette analysed by LC-MS/MS using two sets of calibration standards for protein-free (7 points) and protein-containing solutions (6 points).
In general terms: In equilibrium dialysis only unbound substance equilibrates across the membrane.

The test system of a further data set is RSV. As to the kind of experiment: RSV plaque reduction assay (Comparative Example 1, strain not stated). Format: cell-based. Conditions: human respiratory syncytial virus; read-out: RSV Plaque Reduction assay IC50 (Table 4). The procedure: Plaque Reduction Assay: […] After an overnight incubation at 37° C. in a humidified 5% CO2 atmosphere, the monolayer of cells should be approximately 90% confluent. Antiviral compounds were titrated in pre-warmed Serum Free (SF) Optimem in a U-bottom 96 well plate. […] Media was then removed from cells and replaced with PBS (100 μl/well). RSV stock was thawed and diluted in SF Optimem media to 4000 PFU/mLl. An equal volume of virus was added to compounds on the titration plate. PBS was removed from cells which were then inoculated with the virus/compound solution (50 μL/well). Cells were incubated for 2 h in a 37° C.+5% CO2 humidified incubator to allow infection. […] Cells were subsequently incubated for 48 h at 37° C.+5% CO2 in a humidified incubator. Immunostaining Procedure: Media was removed from cells and the monolayer washed with PBS. Cells were fixed with ice cold 80% Acetone in PBS (100 μl/well) for 20 mins at −20° C. […] Blocking solution was removed and plates washed once with PBS-T. Primary antibody in blocking solution was added to plates (50 μl/well) and incubated for 1 h at 37° C. Plates were then washed 3 times with PBS-T. Secondary antibody in blocking solution was added to plates (50 μL/well) and incubated for 1 h at 37° C. in the dark. […] Data Analysis: Images obtained were saved and plaque numbers counted with the aid of computer imaging software. […]

SMILES strings stand for the structures.

Take `NCc1ccc2c(c1)nc(CN1C(=O)C3(CC3)c3ccc(F)cc31)n2CCCC(F)(F)F` [Example 1, 1′-{[5-(Aminomethyl)-1-(4,4,4-trifluorobutyl)-1H-1,3-benzodiazol-2-yl]methyl}-6′-fluoro-1′,2′-dihydrospiro[cyclopropane-1,3′-indole]-2′-one]: the half-maximal inhibitory concentration (IC50) – broadly, the midpoint of a concentration-inhibition curve – was found to be 2.1 nM with RSV A2 (PRNT1), 5.7 nM in the data set on RSV-A5 (6440), 10.3 nM in the data set with RSV-A5 (6470) and 2.1 nM in the data set on RSV-BA (Brasil). Also, the concentration for an effect of 90% (IC90) (as a rule, the concentration at which the effect reaches the 90% level) in the data set on RSV A2 (PRNT1) came to 13.5 nM; in the data set on RSV-A5 (6440) it was 106 nM; in the data set with RSV-A5 (6470), 81 nM; with RSV-BA (Brasil), 34.5 nM. Also, the fraction unbound (as a rule, free concentration divided by total concentration) at 5 μM in data set [1] turned out to be 0.67.

For the compound `CC(C)CCn1c(CN2C(=O)C3(CC3)c3ccccc32)nc2cc(CN)ccc21` [RV039, 1′-((5-(aminomethyl)-1-isopentyl-1H-benzo[d]imidazol-2-yl)methyl)spiro[cyclopropane-1,3′-indolin]-2′-one, reference compound], the IC50 in the data set on RSV turned out to be 31 nM.
